In PMC11050070, “Chemical Modifications to Enhance the Drug Properties of a VIP Receptor Antagonist (ANT) Peptide” (International Journal of Molecular Sciences, 2024):
Where no end group is shown, it is not given here.

Experiment: Plasma stability T cell activation study
Format: in vitro ADME
Details: 200 μM peptide mixed 1:1 with healthy donors' plasma, 37 °C, aliquots at 24, 48, 72, 96 hrs; read-out pooled human T cell activation at 10 μM; three donors' plasma; retained up to 96 h (longest time tested); Figure S1
Protocol: 1.3 Plasma Stability T Cell Activation Study
200 μM ANT308 or 200 μM ANT308K-PEG were mixed with healthy donors’ plasma at 1:1 ratio, followed by incubation at 37 °C. Aliquots (150 μL) were collected at 24 hrs, 48 hrs, 72 hrs, and 96 hrs and stored at -80 °C before pooled human T cells activation assay. Assays were performed with three different donor ’s plasma.
Activated T cells Activated T cells
Non-Activated T cells Non-Activated T cells […]
Diffe rentDonors’ plasma Diffe rentDonors’ plasma
Pre-incubation Time ( hrs) Pre-incubation Time ( hrs)
Figure S1A-F: Plasma stability and human T cells activation. After incubation with healthy donors’ plasma at 37 °C for 24hrs, 48hrs, 72hrs, and 96hrs. 10 μM ANT308 (A,C,E) or 10 μM ANT308K-PEG (B,D,F) were directly mixed with isolated & pooled human T cells with the […]

For “KPRRPYTSDYTRLRKQMAVKKYLNLILN-NH2 [ANT308]”, which “time of incubation in human plasma after which the ability to activate human T cells is retained” value is on record?
The value was no less than 96 h.
